# Measurements taken from patent US20080076762A1, “Novel 4-Aminopiperidine Derivatives” (priority 2004, published 2008).
# Experiments:
# plasmepsin II = plasmepsin II (Plasmodium falciparum, UniProt Q8I6V3); experiment: FRET assay for plasmepsin II; format: biochemical; details: pH 5, 37° C., substrate M-2120 1 μM
# Method: (§1) The Fluorescence Resonance Energy Transfer (FRET) Assay for Plasmepsin II & IV and Human Cathepsin D & E:
# (§2) The assay conditions are selected according to reports in the literature.
# (§3) The FRET assay is performed in white polysorp plates (Fluoronunc, cat no 264 572) at 37° C. with a final volume of 80 μl.
# (§4) The assay buffer is composed of 50 mM sodium acetate pH 5, 12.5% (w/v) glycerol, and 0.1% (w/v) BSA. The reaction consists of the following components: 60 μl assay buffer, 4 μl inhibitor (in DMSO), 8 μl substrate (M-2120 from BACHEM) to a final concentration of 1 μM and 8 μl enzyme (plasmepsin II, plasmepsin IV or cathepsin E to a final amount of 0.015 μg/ml per assay tube, cathepsin D to a final amount of 0.05 μg/ml per assay tube). The inhibitor is pre-diluted in DMSO in a dilution plate and six concentrations are prepared in duplicate. The compounds are usually tested at a final concentration varying from 1 nM to 100 μM. The substrate is diluted using 50% DMSO-50% assay buffer and the enzyme using assay buffer. The mixtures are then incubated for 3 h at 37° C. and the fluorescence is determined at 1 and 3 hour with a FluoroStar Galaxy from BMG using excitation and emission filters of 355 and 520 nm, respectively.
# (§5) Auto-fluorescence of all the test substances is determined in assay buffer in the absence of substrate and enzyme and this value is subtracted from the final signal.
# (§6) The inhibitory activity of the compounds is expressed as IC50, which represents the concentration of compound that inhibits 50% of the maximal (uninhibited) enzyme activity.
# plasmepsin IV = plasmepsin IV (Plasmodium falciparum, UniProt Q8IM16); experiment: FRET assay for plasmepsin IV; format: biochemical; details: pH 5, 37° C., substrate M-2120 1 μM
# Chain of plasmepsin IV (Q8IM16 122-449): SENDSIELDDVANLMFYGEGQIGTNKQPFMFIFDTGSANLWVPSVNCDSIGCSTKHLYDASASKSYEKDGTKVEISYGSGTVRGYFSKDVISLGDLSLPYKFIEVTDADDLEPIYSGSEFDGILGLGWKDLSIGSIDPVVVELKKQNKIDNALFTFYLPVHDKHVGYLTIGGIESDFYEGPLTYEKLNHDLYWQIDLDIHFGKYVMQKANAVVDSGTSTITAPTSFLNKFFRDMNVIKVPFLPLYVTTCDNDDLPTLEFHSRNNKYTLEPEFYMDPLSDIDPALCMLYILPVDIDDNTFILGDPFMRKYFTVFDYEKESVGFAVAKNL
# Method: as §1, §2, §3, §4, §5, §6
# Chain of plasmepsin II (Q8I6V3 125-453): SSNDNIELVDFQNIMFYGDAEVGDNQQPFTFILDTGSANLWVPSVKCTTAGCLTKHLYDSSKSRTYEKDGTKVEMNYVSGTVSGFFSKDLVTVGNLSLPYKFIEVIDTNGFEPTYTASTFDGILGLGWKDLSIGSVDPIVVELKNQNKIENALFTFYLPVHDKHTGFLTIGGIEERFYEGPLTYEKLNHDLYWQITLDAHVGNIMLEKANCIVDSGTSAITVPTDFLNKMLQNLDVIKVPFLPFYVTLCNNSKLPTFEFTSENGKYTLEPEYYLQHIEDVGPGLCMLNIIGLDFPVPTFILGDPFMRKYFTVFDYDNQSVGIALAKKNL
IC50 (plasmepsin II) [nM],IC50 (plasmepsin IV) [nM],SMILES
77,,CCCCCc1ccc(C(=O)N(Cc2ccc(-c3ccc(C(=O)N4CCCCC4)cc3)cc2)C2CCN(CCC(C)C)CC2)s1 [Example 88]
10,635,CCCCCc1ccc(C(=O)N(Cc2ccc(-c3ccc(C(=O)N4CCCCC4)cc3)cc2)C2CCN(CCC(C)C)CC2)nc1 [Example 163]
16,22,"CCCCCc1ccc(C(=O)N(Cc2ccc(-c3cccc(C)c3)cc2)C2CCN(CCC(C)C)CC2)nc1 [Example 166, 5-Pentyl-pyridine-2-carboxylic acid (3′-methyl-biphenyl-4-ylmethyl)-[1-(3-methyl-butyl)-piperidin-4-yl]-amide]"
41,56,"CCCCCc1ccc(C(=O)N(Cc2ccc(-c3ccc(Cl)c(Cl)c3)o2)C2CCN(CCC(C)C)CC2)cc1 [Example 220, N-[5-(3,4-dichloro-phenyl)-furan-2-ylmethyl]-N-[1-(3-methyl-butyl)-piperidin-4-yl]-4-pentyl-benzamide]"
40,1110,"CCCCCc1ccc(C(=O)N(Cc2ccc(C(=O)NCc3c(F)cccc3F)cc2)C2CCN(CCC(C)C)CC2)nc1 [Example 223, 5-Pentyl-pyridine-2-carboxylic acid [4-(2,6-difluoro-benzylcarbamoyl)-benzyl]-[1-(3-methyl-butyl)-piperidin-4-yl]-amide]"
51,359,CCCCCc1ccc(C(=O)N(Cc2ccc(N3CCSCC3)nc2)C2CCN(CCC(C)C)CC2)nc1 [Example 226]
